Source: patent publication EP4786452A1, “AMIDE COMPOUNDS” (China Pharmaceutical University, priority 2023, dated 2025)
Marks after values point to notes of the source that are not given here.

Columns and labels:
in vitro [1] = conditions: mouse, blood, Half-life T 1/2 in CD-1 mouse whole blood
Method: (§1) 1 mM stock solutions of the test compounds were prepared in DMSO, and a 1 mM stock solution of the reference compound propantheline was prepared in acetonitrile.
(§2) 4 µL of test compound stock solution (or reference compound stock solution) was added to 796 µL of pre-incubated whole blood (CD-1 mouse whole blood or human whole blood) at a final concentration of 5 µM. The final concentration of the solvent was 0.5%. At different time points (including 5 min, 15 min, 30 min, 60 min, and 120 min), a 50 µL aliquot of the whole blood containing the sample was added to a new tube and incubated in a 37 °C water bath with shaking at 60 rpm. The treatment was performed in duplicate. At designated time points, 300 µL of room-temperature quenching solution (a solution of acetonitrile containing internal standards (100 nM alprazolam, 500 nM labetalol, and 2 µM ketoprofen)) was added to the whole blood sample containing the sample to terminate the reaction. 50 µL of whole blood containing the sample was added to a new tube containing 300 µL of room-temperature quenching solution to prepare a sample at 0 min. All samples were vortexed for 5 min. The samples in the plate were centrifuged at 3220 g for 30 min at 4 °C to precipitate the proteins. 100 µL of the supernatant was transferred to a new 96-well plate containing 100 µL of water for LC-MS/MS analysis.
(§3) The peak area ratio was determined by using an extracted ion chromatogram. The proportion of remaining compound at each time point was calculated according to the following formula: Remaining proportion t min (%) = peak area ratio t min / peak area ratio 0 min × 100% [formula] • Peak area ratio t min: peak area ratio of reference compound to test compound at t min; • Peak area ratio 0 min: peak area ratio of reference compound to test compound at time zero.
(§4) The slope value was determined by linear regression on the curve of the natural logarithm of the remaining proportion of the test compound versus the incubation time.
(§5) Determination of in vitro half-life (in vitro t1/2) from the slope value: in vitro t1/2 = 0.693/k [formula] in the formula, k is the rate constant (k = -slope value)

AR = AR antagonistic activity: AR / PSA ARE1 luciferase reporter gene assay in transfected LNCaP cells stimulated with 1 nM DHT; assay type: cell-based
Method: LNCaP cells were plated in a 6-well plate (Corning, 3516) at 8 × 10^5 cells/well.
Transfection reagents Lipo 3000 and P3000 (Lipofectamine™ 3000) and AR and PSA ARE1 reporter gene plasmids (Bio (Anhui) Co., Ltd.) (a total of 2.5 µg of plasmids, i.e., 1.25 µg of each plasmid, were added to each well) were left to stand and incubated at room temperature for 10 min, and then 250 µL of the above transfection reagents were added dropwise to each well containing cells.
The cells were washed with PBS, and the medium was replaced with a phenol red-free RPMI-1640 medium containing 5% carbon adsorption serum. The cells were re-plated onto a 96-well plate (Corning, 3603) according to the number of cells plated (2 × 10^4 cells/well).
After cell plating, the test compound (or DMSO or positive control) was added. After at least 30 min of incubation (incubator, 37 °C, 5% CO2), DHT (dihydrotestosterone) was added to the culture system at a final concentration of 1 nM. The culture system was then incubated in a carbon dioxide incubator. The final volume of the system in the plate was 100 µL.
Test compound: 10 mM stock solution, with a final concentration of 3.3 µM or 6.7 µM. Negative control: 0.1% DMSO. Positive control: 30 µM enzalutamide.
After the test compound (or DMSO or positive control) and DHT were co-incubated for 6 or 24 h, the luciferase signal was detected using the Vazyme Bright-Lite substrate. The medium was added at 70 µL/well, and the plate was shaken for 2 min, followed by reading of the luciferase signal.
Assay robustness was confirmed using the DMSO and low concentration control data: Ave_H = Ave (DMSO) [formula] Ave_L = Ave (30000nMenzalutamide) [formula] Inhibition rate (%) = (Ave_H−Sample)/(Ave_H−Ave_L) × 100% [formula] • Ave_H: the measurement of the negative control (0.1% DMSO); • Ave_L: the measurement of the positive control (30 µM enzalutamide); • Sample: the measurement of the test compound;

in vitro [2] = conditions: human, blood, Half-life T 1/2 in human whole blood
Method: as §1, §2, §3, §4, §5

[3] = human, microsomes, 1 µM, pH 7.4
Method: (§6) The metabolic stability of compounds disclosed herein in liver microsomes was determined using the following method.
(§7) Liver microsome source: Human liver microsome (Corning, 452117) • 2. Na2HPO4 (Tianjin Guangfu Fine Chemical Research Institute, 20180130) • 3. KH2PO4 (Tianjin Guangfu Fine Chemical Research Institute, 20180920) • 4. MgCl2 (Tianjin Guangfu Fine Chemical Research Institute, 20191216) • 5. NADPH (Solarbio, 1216C022) • 6. Positive control compound: verapamil (Sigma, MKBV4993V) • 7. AB Sciex Triple Quad 4000 liquid chromatography-mass spectrometry system
(§8) Preparation of 100 mM phosphate-buffered saline (PBS): 7.098 g Na2HPO4 was dissolved in 500 mL of purified water by sonication to give solution A. 3.400 g of KH2PO4 was dissolved in 250 mL of purified water by sonication to give solution B. Solution A was placed on a stirrer, and solution B was added slowly until the pH reached 7.4, so as to give a 100 mM PBS buffer. […] Preparation of reaction system The reaction system was prepared according to the table below.
(§9) The reaction system was pre-incubated in a 37 °C water bath for 10 min. 40 µL of 10 mM NADPH solution (in 100 mM phosphate-buffered saline) was added to the reaction system, with the final NADPH concentration being 1 mM. A negative control was prepared by replacing the NADPH solution with 40 µL of phosphate-buffered saline. The negative control was used to exclude the effect of the chemical stability of the compound itself. […] The reaction was initiated by adding 4 µL of 100 µM compound disclosed herein or positive control compound verapamil to the reaction system at a final concentration of 1 µM. […] After 0.5 min, 15 min, 30 min, 45 min, and 60 min of mixing well by using a vortex oscillator, 50 µ L of the incubated sample was taken out, and glacial acetonitrile containing an internal standard of 4 folds was added to terminate the reaction. The sample was centrifuged at 3,220 g for 45 min. 90 µL of the supernatant was transferred to a feeding plate after the centrifugation was completed, and 90 µL ultrapure water was added. The mixture was well mixed for LC-MS/MS analysis.
(§10) All data were calculated by using Microsoft Excel software. The peak areas were determined by using an extracted ion chromatogram. The in vitro half-life (T1/2) of the test compound was determined by linear fitting of the natural logarithm of the elimination proportion of the test compound over time. In vitro half-life (T1/2) was calculated by the slope k: in vitro T1/2 = 0.693/k [formula]
(§11) The in vitro intrinsic clearance (in vitro CLint, unit: µL/min/mg protein) was calculated using the following formula: in vitro CLint = k × volume of incubation solution/enzyme protein content; [formula]

[4] = 5 µM
Method: as §1, §2, §3, §4, §5

[5] = 5 µM; remark: listed apart in the source
Method: as §1, §2, §3, §4, §5

in vitro [6] = conditions: human, microsomes; for microsomal CLint at 1 µM: pH 7.4, In vitro Clint; for half-life at 1 µM: pH 7.4, In vitro T1/2
Method: as §6, §7, §8, §9, §10, §11

[7] = mouse, in vivo
Excerpt: Treatment: On day 3 after shaving, the mice were grouped for treatment. […] The control group received the vehicle. 12 mice were in each group.

C57BL/6 mice = test: In vivo pharmacodynamic study: hair growth scoring in shaved telogen-phase mice; conditions: for Score (mean±SD): hair growth score 0-5, 0.5 wt% applied to shaved area twice daily
Excerpt: Vehicle: propylene glycol/ethanol (30:70, v/v)
Animal information: C57BL/6 mice (male, aged 6 weeks, about 18-20 g), purchased from Shanghai Lingchang Biotechnology Co., Ltd. The mice were bred in an SPF-level environment within independently ventilated cages. All animals had free access to a certified, commercial standard laboratory diet and drinking water.
Skin preparation: After 1-2 weeks of acclimation, the hairs in a 2 cm × 3 cm area of the back of the mice were shaved to confirm that the hairs of the mice were in the telogen phase (the skin was pink) and the skin was not damaged.
The control group received the vehicle. 12 mice were in each group.
The scoring criteria are as follows: • 0: no growth, with pink skin in the shaved area; • 1: the skin in the shaved area was gray (an increase of less than 20%); • 2: the skin in the shaved area was black (more than 20% but less than 40%); • 3: the skin in the shaved area was black with a little hair growth (more than 40% but less than 60%); • 4: the skin in the shaved area was black with partial hair growth (more than 60% but less than 80%); • 5: basically complete hair growth (80%-100% growth) in the shaved area.

[8] = incubation time: 24 h, test concentration: 3.3 µM, LNCaP cells, 1 nM DHT, normalised to 0.1% DMSO and 30 µM enzalutamide

Structure (SMILES): CCOC(=O)CCCC(C)(O)C(=O)Nc1cnc(C#N)c(C(F)(F)F)c1 (single isomer, unassigned) [Compound 005]
- half-life at 5 µM (in vitro [1]): 3.54 min
- AR antagonism (inhibition rate, %) (AR; 6 h, 6.7 µM): 92.96^b %
- half-life at 5 µM (in vitro [2]): 119 min
- In vitro Clint [3]: 670.7 µL/min/mg protein
- In vitro T1/2 [3]: 2.1 min

Structure (SMILES): CCOC(=O)CCCC(C)(O)C(=O)Nc1cnc(C#N)c(C(F)(F)F)c1 (single isomer, unassigned) [Compound 006]
- Half-life T 1/2 in human whole blood [4]: 183.42 min
- AR antagonism (inhibition rate, %) (AR; 24 h, 3.3 µM): 88.13^a %
- AR antagonism (inhibition rate, %) (AR; 24 h, 6.7 µM): 90.51^c %
- In vitro Clint [3]: 199.5 µL/min/mg protein
- In vitro T1/2 [3]: 6.9 min
- Half-life T 1/2 in CD-1 mouse whole blood [5]: 3.61 min

Structure (SMILES): COC(=O)CCCC(C)(O)C(=O)Nc1cnc(C#N)c(C(F)(F)F)c1 (single isomer, unassigned) [Compound 007]
- microsomal CLint at 1 µM (in vitro [6]): 226 µL/min/mg
- half-life at 1 µM (in vitro [6]): 6.1 min
- half-life at 5 µM (in vitro [1]): 2.7 min
- AR antagonism (inhibition rate, %) (AR; 24 h, 6.7 µM): 100.00^c %
- half-life at 5 µM (in vitro [2]): 82.7 min

Structure (SMILES): COC(=O)CCCC(C)(O)C(=O)Nc1cnc(C#N)c(C(F)(F)F)c1 (single isomer, unassigned) [Compound 008]
- Half-life T 1/2 in human whole blood [4]: 141.44 min
- AR antagonism (inhibition rate, %) (AR; 6 h, 6.7 µM): 92.41^b %
- In vitro Clint [3]: 131.2 µL/min/mg protein
- In vitro T1/2 [3]: 10.6 min
- Half-life T 1/2 in CD-1 mouse whole blood [5]: 3.94 min

Structure (SMILES): CC(C)OC(=O)CCCC(C)(O)C(=O)Nc1cnc(C#N)c(C(F)(F)F)c1 (single isomer, unassigned) [Compound 009]
- microsomal CLint at 1 µM (in vitro [6]): 234 µL/min/mg
- half-life at 1 µM (in vitro [6]): 5.9 min
- half-life at 5 µM (in vitro [1]): 10 min
- AR antagonism (inhibition rate, %) (AR; 24 h, 6.7 µM): 97.66^c %
- half-life at 5 µM (in vitro [2]): 210 min

Structure (SMILES): CC(C)OC(=O)CCCC(C)(O)C(=O)Nc1cnc(C#N)c(C(F)(F)F)c1 (single isomer, unassigned) [Compound 010]
- signs of erythema, dehiscence, desquamation on the skin [7]: no signs of erythema, dehiscence, desquamation
- Score (mean±SD) (C57BL/6 mice; Day 0): 0
- Score (mean±SD) (C57BL/6 mice; Day 10): 0.2±0.4
- Score (mean±SD) (C57BL/6 mice; Day 13): 0.2±0.4
- Score (mean±SD) (C57BL/6 mice; Day 16): 0.3±0.5
- Score (mean±SD) (C57BL/6 mice; Day 20): 0.7±0.7
- Score (mean±SD) (C57BL/6 mice; Day 23): 0.8±0.6
- Score (mean±SD) (C57BL/6 mice; Day 27): 1.1±0.7
- Score (mean±SD) (C57BL/6 mice; Day 32, ** P < 0.01 vs. vehicle control group): 1.9±0.7**
- effect on hair growth (C57BL/6 mice; mice with telogen hair growth, 0.5 wt%, BID topically at 20 µL/cm^2, P < 0.01 from day 32): significant promoting effect on hair growth
- Half-life T 1/2 in human whole blood [4]: 351.20 min
- AR antagonism (inhibition rate, %) (AR; 24 h, 6.7 µM): 85.37^c %
- In vitro Clint [3]: 124.8 µL/min/mg protein
- In vitro T1/2 [3]: 11.1 min
- Half-life T 1/2 in CD-1 mouse whole blood [5]: 5.97 min

Structure (SMILES): CCOC(=O)CCCC(C)(O)C(=O)Nc1cnc(C#N)c(SC)c1 (single isomer, unassigned) [Compound 013]
- microsomal CLint at 1 µM (in vitro [6]): 487 µL/min/mg
- half-life at 1 µM (in vitro [6]): 2.8 min
- half-life at 5 µM (in vitro [1]): < 0.5 min
- half-life at 5 µM (in vitro [2]): 118 min

Structure (SMILES): COC(=O)CCCC(C)(O)C(=O)Nc1cnc(C#N)c(SC)c1 (single isomer, unassigned) [Compound 015]
- Half-life T 1/2 in human whole blood [4]: 164.02 min
- AR antagonism (inhibition rate, %) (AR; 24 h, 3.3 µM): 92.46^a %
- In vitro Clint [3]: 270.78 µL/min/mg protein
- In vitro T1/2 [3]: 5.12 min
- Half-life T 1/2 in CD-1 mouse whole blood [5]: 4.34 min

Structure (SMILES): COC(=O)CCCC(C)(O)C(=O)Nc1cnc(C#N)c(SC)c1 (single isomer, unassigned) [Compound 016]
- Half-life T 1/2 in human whole blood [4]: 70.19 min
- In vitro Clint [3]: 1216.15 µL/min/mg protein
- In vitro T1/2 [3]: 1.14 min
- Half-life T 1/2 in CD-1 mouse whole blood [5]: 9.44 min

Structure (SMILES): CSc1cc(NC(=O)C(C)(O)CCCC(=O)OC(C)C)cnc1C#N (single isomer, unassigned) [Compound 017]
- microsomal CLint at 1 µM (in vitro [6]): 243 µL/min/mg
- half-life at 1 µM (in vitro [6]): 5.7 min
- half-life at 5 µM (in vitro [1]): 4.64 min
- half-life at 5 µM (in vitro [2]): 206 min

Structure (SMILES): CSc1cc(NC(=O)C(C)(O)CCCC(=O)OC(C)C)cnc1C#N (single isomer, unassigned) [Compound 018]
- Half-life T 1/2 in human whole blood [4]: 194.81 min
- AR antagonism (inhibition rate, %) (AR; 24 h, 6.7 µM): 63.12^c %
- In vitro Clint [3]: 247.8 µL/min/mg protein
- In vitro T1/2 [3]: 5.6 min
- Half-life T 1/2 in CD-1 mouse whole blood [5]: 4.93 min

Structure (SMILES): CC(O)(CCCCO)C(=O)Nc1cnc(C#N)c(C(F)(F)F)c1 (centres unmarked) [Compound 001, N-[6-cyano-5-(trifluoromethyl)pyridin-3-yl]-2,6-dihydroxy-2-methyl-hexanamide]
- AR antagonism (inhibition rate, %) (AR; [8]): 87.89^a %

Structure (SMILES): CC(O)(CCO)C(=O)Nc1cnc(C#N)c(C(F)(F)F)c1 (centres unmarked) [Compound 002, N-[6-cyano-5-(trifluoromethyl)pyridin-3-yl]-2,4-dihydroxy-2-methylbutanamide]
- AR antagonism (inhibition rate, %) (AR; [8]): 59.75^a %

Structure (SMILES): CCOC(=O)CCC[C@](C)(O)C(=O)Nc1cnc(C#N)c(SC)c1 [Compound 014, ethyl (6S)/(6R)-6-((6-cyano-5-(methylthio)pyridin-3-yl)amino)-5-hydroxy-5-methyl-6-oxohexanoate]
- Half-life T 1/2 in human whole blood [4]: 89.49 min
- AR antagonism (inhibition rate, %) (AR; incubation time: 24 h, test concentration: 6.7 µM, LNCaP cells, 1 nM DHT, normalised to 0.1% DMSO and 30 µM enzalutamide): 64.39^c %
- Half-life T 1/2 in CD-1 mouse whole blood [5]: 1.13 min

Structure (SMILES): CSc1cc(NC(=O)C(C)(O)CCCC(=O)OC(C)(C)C)cnc1C#N (centres unmarked) [Compound 019, tert-butyl 6-((6-cyano-5-(methylthio)pyridin-3-yl)amino)-5-hydroxy-5-methyl-6-oxohexanoate]
- AR antagonism (inhibition rate, %) (AR; incubation time: 6 h, test concentration: 6.7 µM, LNCaP cells, 1 nM DHT, normalised to 0.1% DMSO and 30 µM enzalutamide): 57.98^b %

Structure (SMILES): CCOC(=O)CCCC(C)(O)C(=O)Nc1cnc(C#N)c([Se]C)c1 (centres unmarked) [Compound 024, Ethyl 6-[(6-cyano-5-methylselanylpyridin-3-yl)amino]-5-hydroxy-5-methyl-6-oxohexanoate]
- AR antagonism (inhibition rate, %) (AR; [8]): 88.18^a %

Structure (SMILES): CCOC(=O)CCCCC(C)(O)C(=O)Nc1cnc(C#N)c(C(F)(F)F)c1 (centres unmarked) [Compound 027, Ethyl 7-((6-cyano-5-(trifluoromethyl)pyridin-3-yl)amino)-6-hydroxy-6-methyl-7-oxoheptanoate]
- AR antagonism (inhibition rate, %) (AR; [8]): 76.55^a %

Structure (SMILES): CCOC(=O)CCCC(C)(O)C(=O)Nc1ccc(C#N)c(SC)c1 (centres unmarked) [Compound 029, Ethyl 6-(4-cyano-3-methylthio-anilino)-5-hydroxy-5-methyl-6-oxohexanoate]
- AR antagonism (inhibition rate, %) (AR; [8]): 98.41^a %

Structure (SMILES): CCOC(=O)CCCC(C)(O)C(=O)Nc1ccc(C#N)c(OC)c1 (centres unmarked) [Compound 030, Ethyl 6-(4-cyano-3-methoxy-anilino)-5-hydroxy-5-methyl-6-oxohexanoate]
- AR antagonism (inhibition rate, %) (AR; [8]): 98.45^a %

Structure (SMILES): CSc1cc(NC(=O)C(O)CCCC(=O)OC(C)C)cnc1C#N (centres unmarked) [Compound 032, Isopropyl 6-((6-cyano-5-(methylthio)pyridin-3-yl)amino)-5-hydroxy-6-oxohexanoate]
- AR antagonism (inhibition rate, %) (AR; [8]): 92.25^a %
